How the values were obtained:
Format in all cases: cell-based, human
hPSCs [1] = assay: hPSC proliferation during subculture (total number of cells); settings: continuous 10 nM, subculture 3 times, P<0.01
Description: In order to check whether the change in hPSCs proliferation ability by cP1P treatment is maintained during subculture, hPSCs were continuously treated with 10 nM cP1P in the same manner as in Example 1, and after subculture 3 times, the proliferation change of hPSCs was confirmed.

hPSCs [2] = assay: hPSC cell cycle by PI flow cytometry; settings: 10 nM
Description: For flow cytometry, hPSCs were treated with 10 nM cP1P in the same manner as in Example 1, and hPSCs were separated using cell dissociation buffer (Thermo Fisher Scientific US, A1110501), and harvested cells were washed three times with DPBS (pH 7.4). After washing, the supernatant was removed. During washing, cold 70% (v/v) ethanol was added dropwise to the cell pellet. The cells were fixed at 4° C. for 1 hour and washed 3 times with DPBS (pH 7.4). After centrifugation at 2,000 rpm for 5 minutes, 50 uL of 100 μg/ml RNase (Sigma-Aldrich US, R4642) was added. They were mixed well and added with 200 μl of PI (propidium iodide) (Sigma-Aldrich US, P4170) (50 μg/ml) to stain the DNA. Then, the DNA content was measured using flow cytometry (BD).

hPSCs [3] = assay: Alkaline phosphatase staining of hPSCs (undifferentiation ability); settings: 10 nM, compared to DMSO control
Description: In order to check whether the differentiation ability of hPSCs was changed by cP1P treatment, hPSCs were treated with 10 nM cP1P or a control group (vehicle, DMSO) in the same manner as in Example 2.

hPSCs [4] = assay: RNA sequencing of hPSCs after long-term (15 passages) treatment; settings: 10 nM
Description: Specifically, hPSCs were treated and cultured with 10 nM cP1P or were treated and cultured with DMSO as a control group in the same manner as in Example 1. The passage in which cP1P was first treated was defined as 0 and cultured up to a total of 15 passages. After the cells were recovered, and RNAs were extracted. The RNA sequencing analysis was performed with a next-generation sequencing analyzer (Illumina HiSeq 2500) by DGIST (Daegu Gyeongbuk Institute of Science and Technology) asked to analyze the cells.

[5] = test system: REX1, E-Cadherin, OCT4, SOX2, NANOG, SSEA-4; assay: Pluripotency marker expression in hPSCs (immunofluorescence, pluripotent array kit, flow cytometry, Western blot); settings: 100 nM
Description: (§1) For expression analysis of cell cycle regulatory genes, hPSCs were treated with 10 nM cP1P in the same manner as in Example 1. After hPSCs were washed with PBS, hPSCs were fixed in 4% (w/v) PFA (Santa Cruz Biotechnology US, 30525-89-4) for 5 minutes, or after the protein of hPSC cells was recovered, followed by electrophoresis. The expression of pluripotency genes was analyzed (immunofluorescence analysis or Western blot analysis) using anti-REX1(Abcam UK, ab50828), anti-OCT4(Santa Cruz Biotechnology US, sc-5279), anti-SOX2(Abcam UK, ab97959), anti-NANOG(Cell signaling US, 4893s), anti-E-cadherin(Cell signaling US, 24E10), or anti-SSEA4(Merck millipore US, 90231) antibody. Meanwhile, the control group was tested in the same manner as above, except that hPSCs were treated with DMSO (AppliChem GE, A3672,0100).
Specifically, hPSCs were treated with 100 nM cP1P in the same manner as in Example 1. Immunofluorescence analysis was performed in the same manner as in Example 6. Expression of pluripotency-related genes was analyzed using a pluripotent array kit (R&D System US, ARY101). Flow cytometry was performed in the same manner as in Example 6.

CDK1, Cyclin B = assay: Expression of cell cycle regulatory genes in hPSCs; settings: 10 nM, compared to control
Description: as §1

hPSCs [6] = assay: Apoptosis and cytotoxicity assay (Annexin V / 7-AAD); settings: 5 days; for apoptosis marker, (Annexin V, early apoptosis marker; FIG. 8): DMSO control 0.5%; for apoptosis marker, (7-AAD, late apoptosis marker; FIG. 8): DMSO control 6.2%
Description: In order to confirm apoptosis, hPSCs were treated with 10 nM cP1P in the same manner as in Example 1, hPSCs were separated using cell dissociation buffer (Thermo Fisher Scientific US, A1110501), and harvested cells were washed with DPBS (pH 7.4) 2 times. After centrifuged at 2,000 rpm for 5 minutes. The cells were resuspended at 1×10^5 cells per 100 ul of 1× binding buffer to which 10× binding buffer (0.1 M HEPES, 1.4 M NaCl, 25 mM CaCl2, pH 7.4) was diluted. They were added with 5 ul each of Annexin V (BD bioscience US, 556422) and 7-AAD (BD bioscience U.S. Pat. No. 1,559,925) and mixed slowly. They were cultured for 15 minutes in the dark at room temperature and added with 400 ul of 1× binding buffer. Then, analysis was performed using the Annexin V apoptosis detection kit (BD Pharmingen US, 556547).
In order to confirm whether apoptosis and cytotoxicity were induced when hPSCs were treated with cP1P, hPSCs were treated with 10 nM or 100 nM cP1P for 5 days in the same manner as in Example 6, and then Annexin V apoptosis detection kit (BD Pharmingen US, 556547) was used for analysis.

hPSCs (CHA-ESC15) = assay: hPSC cell proliferation ability (optical microscopy and cell count); settings: cultured 6 days; for cell proliferation rate increase compared to the control group (FIG. 3): hPSCs, 10 nM, counted day 7, control DMSO; for apoptosis seen in micrographs (FIG. 2): hPSCs, 50, 100 or 500 nM
Description: They were shaken up and down, left and right to evenly disperse the cells and cultured within 24 hours in a 37° C. CO2 incubator. The culture medium was replaced with the E8 culture medium from which Y27632 was removed, and then the cells were cultured by replacing the culture medium every day until the next passage.
On the 7th day, the cells were observed using an optical microscope at a magnification of 100 times.
In addition, in order to measure the number of cells, the culture medium of the cells was removed on the 7th day of culture, and they were washed once with PBS. Then, for PBS-removed cells, cell dissociation buffer ([…]) was used to cause single-cell. The separated cells were centrifuged at 1000 rpm for 2 minutes to remove the buffer. Then, the cells were suspended in an E8 medium, and the number of cells was measured using EVE™ Automated Cell Counter (NanoEnTek).
Meanwhile, the control group was tested in the same manner as above, except that hPSCs were treated with DMSO (AppliChem GE, A3672,0100).
The culture was performed for 6 days, and hPSCs were observed on the 7th day. The proliferation rate was calculated as {(total number of cells in P1P, cP1P, or SW treatment group)/(total number of cells in the control group)}×100.

CCCCCCCCCCCCCC[C@@H](O)[C@H]1OP(=O)(O)OC[C@@H]1N [cP1P, o-cyclic phytosphingosine-1-phosphate]
total number of cells as subculture was performed (FIG. 6) (hPSCs [1]): increased significantly
increase of cell proliferation compared to the control group (FIG. 7A) (hPSCs [2]): ≥ 12%
number of cells in G2/M phase (FIG. 7B) (hPSCs [2]; compared to control, P<0.01): significantly increased
number of cells in sub-GO phase (apoptotic cells, FIG. 7B) (hPSCs [2]; compared to control, P>0.05): significantly reduced
cell proliferation, experimental group (FIG. 7A) (hPSCs [2]; control group 48%): 60%
undifferentiation ability (alkaline phosphatase staining, FIG. 4) (hPSCs [3]): well maintained
cluster 5 (C5) gene expression (cell development, embryo development, cell proliferation genes) (hPSCs [4]; decreased in untreated control): stably maintained
cluster 2 (C2) gene expression (oxidative stress and apoptotic process genes) (hPSCs [4]; increased in untreated control): decreased
gene expression changes (DEG) compared with passage 0 (FIG. 10) (hPSCs [4]; no cP1P-treated group 575): 197
expression of pluripotency marker genes REX1, E-Cadherin, OCT4 and SOX2 (immunofluorescence, FIG. 9A) ([5]; compared to control): increased
protein expression of OCT4 and E-Cadherin (FIG. 9D) ([5]; compared to control): increased
spots of pluripotency-related genes OCT4, NANOG, SOX2 and E-Cadherin (array, FIG. 9B) ([5]; compared to control): detected to be high
protein expression of SSEA-4 (FIG. 9C) ([5]; control 68.8%): 82.2%
protein expression of E-Cadherin (FIG. 9C) ([5]; control 81.8%): 85.6%
protein expression of REX1 (FIG. 9C) ([5]; control 86.8%): 95.7%
protein expression of OCT4 (FIG. 9C) ([5]; control 95.2%): 96.5%
expression of genes regulating the cell cycle (CDK1, Cyclin B; FIGS. 7C to 7E) (CDK1, Cyclin B): increased
apoptosis compared to the control group (FIG. 8) (hPSCs [6]; 10 nM or 100 nM): reduced
cytotoxicity compared to the control group (FIG. 8) (hPSCs [6]; 10 nM or 100 nM): significantly lowered
apoptosis marker, (Annexin V, early apoptosis marker; FIG. 8) (hPSCs [6]; 10 nM): 0.9%
apoptosis marker, (7-AAD, late apoptosis marker; FIG. 8) (hPSCs [6]; 10 nM): 3.9%
apoptosis marker, (Annexin V, early apoptosis marker; FIG. 8) (hPSCs [6]; 100 nM): 1.9%
apoptosis marker, (7-AAD, late apoptosis marker; FIG. 8) (hPSCs [6]; 100 nM): 5.3%
cell proliferation rate increase compared to the control group (FIG. 3) (hPSCs (CHA-ESC15)): 1.78 times
cell proliferation ability (FIG. 2) (hPSCs (CHA-ESC15); hPSCs, 50, 100 or 500 nM every 2 days, observed day 7, compared to P1P or S1P): significantly increased

CCCCCCCCCCCCC/C=C/[C@@H](O)[C@@H](N)COP(=O)(O)O [S1P, sphingosine-1-phosphate]
cell proliferation rate increase compared to the control group (FIG. 3) (hPSCs (CHA-ESC15)): about 1.25 times
apoptosis seen in micrographs (FIG. 2) (hPSCs (CHA-ESC15); observed day 7): apoptosis occurred

CCCCCCCCCCCCCC[C@@H](O)[C@@H](O)[C@@H](N)COP(=O)(O)O [P1P, phytosphingosine-1-phosphate]
cell proliferation rate increase compared to the control group (FIG. 3) (hPSCs (CHA-ESC15)): about 1.55 times
apoptosis seen in micrographs (FIG. 2) (hPSCs (CHA-ESC15); observed day 7): apoptosis occurred
